Where “and” joins values, the source holds several entries; their conditions need not be identical. Equal values may be shown once. Where a name gives a salt, the structure may show the parent alone. Read-outs that look alike come from different tables or passages of the source.
How the values were obtained:
[1] = 1 to 2 hours before sexual intercourse, cited from earlier work
Wistar rats = experiment: PCA-induced Wistar rat premature ejaculation model; type: in vivo
Experimental: Male Wistar rats with a weight of about 300 g were adapted for one week before the experiment was started. On the day of the experiment, the animals were anesthetized with a combination of 20 mg/kg of Zoletil 50 via i.p. and 8 mg/kg of xylazine via i.p., and the body temperature was maintained at 37° C. with a thermal insulation blanket. Exposed common carotid artery was intubated with PE50 to monitor real-time arterial pressure (i.e. systolic pressure, diastolic pressure, and mean arterial pressure). The seminal vesicles and cavernosal muscles of the animals were exposed. The stable baselines of the pressure of the seminal vesicle and the cavernosal myoelectricity were recorded for 10 min. Then the drug was administered through the tail vein for the dapoxetine group, and the tested compound was orally administered for the tested compound group (for the PE model group, the drug was replaced with a solvent). After 1 min, for inducing PE modeling, 5 mg/kg of PCA was injected intraperitoneally, and then the seminal vesicle pressure curve and the change of bulbospongiosus EMG were continuously recorded for 30 min.
• A. Within 30 min, the actual number of ejaculations of the animals and the latency period of the first ejaculation; • B. Within 30 min, the number of the seminal vesicle contractions, the latency period of the first contraction, the basal pressure and the peak pressure.
The experimental data were expressed by means±S.E.M., and statistical analysis was performed by GraphPad Prism 7.0 software. Single factor variance analysis (One-way ANOVA) was used for comparison between multiple groups, and Dunnett't-test was used for statistical analysis in Post hoc test. Student's t-test was used for comparison between two groups. P<0.05 was considered as a significant difference.

[2] = Dapoxetine 2 mg/kg i.v. + PCA 5 mg/kg i.p., within 30 min after PCA induction, individual rats, hydrochloride
[3] = dapoxetine, medium or high dose of A001 to A006

In the case of `CN(C)[C@@H](CCOc1cccc2ccccc12)c1ccccc1` [Dapoxetine, Dapoxetine hydrochloride, reference compound], the “increase of IELT” value ([1]; 30 mg) is given as 2.5 times, the “increase of IELT” value ([1]; 60 mg) is given as 3.0 times and the “Actual number of ejaculations” value (Wistar rats; [2]) is given as 1 (2×) and 0 (2×) and 2. For the same compound, the “Number of the seminal vesicle contractions” value (Wistar rats; [2]) was 1 (3×) and 0 and 3, the “Seminal vesicle basal pressure” value (Wistar rats; [2]) was 5.16 mmHg and 4.97 mmHg and 5.37 mmHg and 5.88 mmHg and 4.96 mmHg and the “Seminal vesicle peak pressure” value (Wistar rats; [2]) was 6.89 mmHg and 8.1 mmHg and 6.46 mmHg and 6.78 mmHg and 7.03 mmHg. For the same compound, the “The first contraction latency period” value (Wistar rats; [2]) was 1448 s and 1705 s and 1800 s and 1749 s and 866 s, the “The first ejaculation latency period” value (Wistar rats; [2]) was 1558 s and 1800 s (2×) and 1256 s and 967 s and the “latency period of initial seminal vesicle contraction compared with the PE model group” value (Wistar rats; dapoxetine group (2 mg/kg i.v.), FIG. 4) was “significant increase”. The “ejaculation latency period (conclusion)” value (Wistar rats; [3]) was “effectively prolong” and the “number of ejaculations (conclusion)” value (Wistar rats; [3]) was “greatly reduce”.

Source: patent US20260098034A1, “2H-BENZOTRIAZOLE DERIVATIVE, PREPARATION METHOD THEREFOR, AND PHARMACEUTICAL COMPOSITION CONTAINING SAME” (ORXES THERAPEUTICS CO., LTD., priority 2022, published 2026)
